This note sets out measurements from US20230192661A1, “1, 4, 5, 6-TETRAHYDROPYRIMIDINE-2-AMINE DERIVATIVE” (UBE Corporation, priority 2020, published 2023).

Series [1] has as its system TGF-β activation (phosphorylated SMAD3). The experiment in a line: TGF-β activation inhibition test (inhibition of SMAD3 phosphorylation in TFK-1 cells). The class given is cell-based. The settings on record: 48 h, fibronectin-coated plate, cultured 2 days, read-out: IC50 (rate of inhibition of phosphorylated SMAD3). In short, it runs like this:
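TFK-1 cells on fibronectin-coated wells cultured 2 days at 37° C. with compound in RPMI 1640 with 1% FBS. Phospho-SMAD3 (Ser423/425) measured by cellular kit as DeltaF; inhibition scaled between DMSO (0%) and 10 μM LY364947 (100%), and IC50 calculated.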

Series [2] is described as follows: Transcellular transport test using Caco2 cell. The class given is in vitro ADME. The following applies: human, Caco-2; Caco2 monolayer, A-to-B, 10 μM compound, pH 7.4, 90 minutes. In a few lines: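 Caco2 monolayers grown 20 to 22 days on 0.4 μm polycarbonate inserts; 10 μM compound (0.1% DMSO) added apically in HBSS/20 mM HEPES pH 7.4, 90 min at 37° C. Basolateral compound quantified by LC-MS/MS; A-to-B Papp computed from transport slope, membrane area and UV-HPLC-measured donor concentration.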
On the technique in general: Passage across Caco-2 layers is used to estimate intestinal permeability.

The structures appear in SMILES notation. pIC50: −log10 of the molar value.

The pIC50 is the negative decadic logarithm of the IC50, by convention in mol/L. What is called Papp A→B is how fast a substance crosses the layer from the apical side. Higher therefore signals fast passage. With `O=C(O)C[C@H](NC(=O)CNC(=O)c1cc(NC2=NCC(F)CN2)c2cn[nH]c2c1)c1cccc(C(F)(F)F)c1Cl` (stereo partly drawn) [Example 10-(b), (3S)-3-(2-chloro-3-(trifluoromethyl)phenyl)-3-(2-(4-((5-fluoro-1,4,5,6-tetrahydropyrimidin-2-yl)amino)-1H-indazole-6-carboxamido)acetamido)propanoic acid], the pIC50 in series [1] was ≤ 7.00. Further, the Papp A→B at 90 min, 10 μM in series [2] is > 1 ×10⁻⁶ cm/s.
For `O=C(O)C[C@H](NC(=O)CNC(=O)c1cc(NC2=NCC(F)CN2)c2cn[nH]c2c1)c1cc(Cl)ccc1F` (stereo partly drawn) [Example 22-(b), (3S)-3-(5-chloro-2-fluorophenyl)-3-(2-(4-((5-fluoro-1,4,5,6-tetrahydropyrimidin-2-yl)amino)-1H-indazole-6-carboxamido)acetamido)propanoic acid] the same measures were 7.30 to 8.00 and > 1 ×10⁻⁶ cm/s.
`O=C(O)C[C@H](NC(=O)CNC(=O)c1cc(NC2=NCC(F)CN2)c2cn[nH]c2c1)c1cc(OC(F)F)cc(OC(F)F)c1` (stereo partly drawn) [Example 30-(b), (3S)-3-(3,5-bis(difluoromethoxy)phenyl)-3-(2-(4-((5-fluoro-1,4,5,6-tetrahydropyrimidin-2-yl)amino)-1H-indazole-6-carboxamido)acetamido)propanoic acid]: the pIC50 in series [1] is > 8.00. For the same compound, the Papp A→B at 90 min, 10 μM in series [2] was 0.5 to 1 ×10⁻⁶ cm/s.
Taken in the same sequence, the figures for `O=C(O)C[C@H](NC(=O)CNC(=O)c1cc(NC2=NCC(F)CN2)c2cn[nH]c2c1)c1cc(OC(F)(F)F)ccc1F` (stereo partly drawn) [Example 33-(b), (3S)-3-(2-(4-((5-fluoro-1,4,5,6-tetrahydropyrimidin-2-yl)amino)-1H-indazole-6-carboxamido)acetamido)-3-(2-fluoro-5-(trifluoromethoxy)phenyl)propanoic acid] were > 8.00 and > 1 ×10⁻⁶ cm/s.
Taken in the same sequence, the figures for `O=C(O)C[C@H](NC(=O)CNC(=O)c1cc(NC2=NCC(F)CN2)cc2[nH]ncc12)c1cccc(C(F)(F)F)c1` (stereo partly drawn) [Example 56-(b), (3S)-3-(2-(6-((5-fluoro-1,4,5,6-tetrahydropyrimidin-2-yl)amino)-1H-indazole-4-carboxamido)acetamido)-3-(3-(trifluoromethyl)phenyl)propanoic acid] were > 8.00 and 0.1 to 0.5 ×10⁻⁶ cm/s.
For `O=C(O)C[C@H](NC(=O)CNC(=O)c1cc(NC2=NCC(F)CN2)c2cn[nH]c2c1)c1cc(OC(F)F)ccc1F` (stereo partly drawn) [Example 28-(b), (3S)-3-(5-(difluoromethoxy)-2-fluorophenyl)-3-(2-(4-((5-fluoro-1,4,5,6-tetrahydropyrimidin-2-yl)amino)-1H-indazole-6-carboxamido)acetamido)propanoic acid] the same measures were 7.30 to 8.00 and > 1 ×10⁻⁶ cm/s.
For the compound `O=C(O)C[C@H](NC(=O)CNC(=O)c1cc(NC2=NCC(F)CN2)c2cn[nH]c2c1)c1cccc(C(F)(F)F)c1` (stereo partly drawn) [Example 35-(b), (3S)-3-(2-(4-((5-fluoro-1,4,5,6-tetrahydropyrimidin-2-yl)amino)-1H-indazole-6-carboxamido)acetamido)-3-(3-(trifluoromethyl)phenyl)propanoic acid], the pIC50 in series [1] was 7.30 to 8.00. Further, in series [2], the Papp A→B at 90 min, 10 μM was > 1 ×10⁻⁶ cm/s.
Taken in the same sequence, the figures for `O=C(O)C[C@H](NC(=O)CNC(=O)c1cc(NC2=NCC(F)CN2)c2cn[nH]c2c1)c1cc(Cl)cc(OC(F)F)c1` (stereo partly drawn) [Example 25-(b), (3S)-3-(3-chloro-5-(difluoromethoxy)phenyl)-3-(2-(4-((5-fluoro-1,4,5,6-tetrahydropyrimidin-2-yl)amino)-1H-indazole-6-carboxamido)acetamido)propanoic acid] were > 8.00 and > 1 ×10⁻⁶ cm/s.
Taken in the same sequence, the figures for `COc1ccc([C@H](CC(=O)O)NC(=O)CNC(=O)c2cc(NC3=NCC(F)CN3)c3cn[nH]c3c2)cc1Br` (stereo partly drawn) [Example 16-(b), (3S)-3-(3-bromo-4-methoxyphenyl)-3-(2-(4-((5-fluoro-1,4,5,6-tetrahydropyrimidin-2-yl)amino)-1H-indazole-6-carboxamido)acetamido)propanoic acid] were 7.30 to 8.00 and > 1 ×10⁻⁶ cm/s.
For `O=C(O)C[C@H](NC(=O)CNC(=O)c1cc(NC2=NCC(F)CN2)c2cn[nH]c2c1)c1cc(I)cc(C(F)(F)F)c1` (stereo partly drawn) [Example 3-(b), (3S)-3-(2-(4-((5-fluoro-1,4,5,6-tetrahydropyrimidin-2-yl)amino)-1H-indazole-6-carboxamido)acetamido)-3-(3-iodo-5-(trifluoromethyl)phenyl)propanoic acid] the same measures were > 8.00 and > 1 ×10⁻⁶ cm/s.
As for `O=C(O)C[C@H](NC(=O)CNC(=O)c1cc(NC2=NCC(F)CN2)cc2[nH]ncc12)c1cc(Br)cc(C(F)(F)F)c1` (stereo partly drawn) [Example 53-(b), (3S)-3-(3-bromo-5-(trifluoromethyl)phenyl)-3-(2-(6-((5-fluoro-1,4,5,6-tetrahydropyrimidin-2-yl)amino)-1H-indazole-4-carboxamido)acetamido)propanoic acid], in series [1], the pIC50 is > 8.00. This compound also gave a Papp A→B at 90 min, 10 μM in series [2] of 0.1 to 0.5 ×10⁻⁶ cm/s.
Taken in the same sequence, the figures for `O=C(O)C[C@H](NC(=O)CNC(=O)c1cc(NC2=NCC(F)CN2)c2cn[nH]c2c1)c1cccc(-n2cccn2)c1` (stereo partly drawn) [Example 43-(b), (3S)-3-(3-(1H-pyrazol-1-yl)phenyl)-3-(2-(4-((5-fluoro-1,4,5,6-tetrahydropyrimidin-2-yl)amino)-1H-indazole-6-carboxamido)acetamido)propanoic acid] were > 8.00 and > 1 ×10⁻⁶ cm/s.
